Seven substances from paper PMC3116189, “Novel Natural Inhibitors of CYP1A2 Identified by in Silico and in Vitro Screening” (International Journal of Molecular Sciences, 2011) can be followed below.

For this data set, the target named is T1, CYP1A2 (Homo sapiens, UniProt P05177).
T1 sequence (P05177 1-516): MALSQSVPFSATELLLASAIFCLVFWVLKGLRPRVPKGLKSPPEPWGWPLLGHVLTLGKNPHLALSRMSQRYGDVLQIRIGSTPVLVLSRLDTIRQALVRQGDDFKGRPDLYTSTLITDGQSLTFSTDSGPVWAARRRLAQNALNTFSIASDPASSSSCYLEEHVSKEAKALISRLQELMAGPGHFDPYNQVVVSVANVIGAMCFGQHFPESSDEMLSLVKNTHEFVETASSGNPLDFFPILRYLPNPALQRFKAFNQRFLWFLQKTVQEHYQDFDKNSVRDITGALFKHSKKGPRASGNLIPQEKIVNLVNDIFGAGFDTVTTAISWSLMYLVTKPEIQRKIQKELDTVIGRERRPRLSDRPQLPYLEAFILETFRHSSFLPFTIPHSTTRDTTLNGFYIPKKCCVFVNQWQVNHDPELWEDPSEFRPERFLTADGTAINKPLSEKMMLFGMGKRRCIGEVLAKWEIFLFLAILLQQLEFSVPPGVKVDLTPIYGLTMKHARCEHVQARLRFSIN
The experiment in a line: in vitro. The format is biochemical. The following applies: 1 μM active ingredient, Rh CYP1A2-mediated phenacetin O-deethylation, test dataset of 202 herb ingredients.

A value given as a limit tells only on which side of the number the result lay.
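Note: recombinant CYP1A2 incubated for 1 h at 37 °C, with the reaction started by an NADPH-generating system.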

Experimental: A total of 18 candidate compounds selected by pharmacophore and docking were examined for their potential to inhibit rhCYP1A2 phenacetin O-deethylation activity at a test concentration of 1 μM.
The basic incubation medium contained 100 mM potassium phosphate buffer (PH 7.4), 50 pmol recombinant human CYP1A2, 25 μM phenacetin and 1 μM active ingredients. The final incubation volume was 200 μL. After 5 min pre-incubation at 37 °C, the reaction was initiated by the addition of NADPH-generating system (5 mM MgCl2, 10 mM glucose 6-phosphates, 1 mM NADPH, and 2.5 U per mL glucose 6-phosphate dehydrogenase). Incubations were performed in a 37 °C shaking water bath for 1 h. Reactions were stopped by adding 0.4 mL of ice-cold acetonitrile containing 0.2 mg/L tinidazole (IS). […] The column was maintained at 35 °C and the injection volume was 10 μL.

On to Echinacoside, for which the “% of Control Indication Activity (Mean)” value was more than 90%. Ginkgolide B: the “% of Control Indication Activity (Mean)” value is reported as more than 90%. Take Lobetyolin: the “% of Control Indication Activity (Mean)” value is given as more than 90%. Consider Pinoresinol diglucoside, for which the “% of Control Indication Activity (Mean)” value is given as more than 90%.

Regarding Rhodiosin, the “% of Control Indication Activity (Mean)” value was more than 90%. For Salvianolic acid B, the “% of Control Indication Activity (Mean)” value was more than 90%. As for Veratramin, the “% of Control Indication Activity (Mean)” value was more than 90%.
